Like-named read-outs stand apart in the source and are kept apart here.
Key:
Vero cells = assay: Drug cytotoxicity assay (MTT) on Vero cells; format: cell-based, African green monkey; details: 72 h, Probit regression
Excerpt: Vero cells were subcultured for 1-2 d to make them into flakes, and trypsinized in the presence of clear boundaries, strong three-dimensional sense and strong refractive power, until needle-like holes appeared on the cell surfaces; after the trypsinization solution was absorbed completely, a few milliliters of culture medium were taken to blow away the cells; the cells were counted, diluted to about 5×10^7/L with a culture medium (DMEM containing 10% fetal bovine serum), and then inoculated in a 96-well culture plate; and the cells grew into a monolayer.
Cytotoxicity test: the drugs were diluted at the concentrations shown in Table 3-1 for cytotoxicity assay.

COVID-19 virus = assay: In-vitro antiviral CPE test in Vero E6 cells, COVID-19 virus; format: cell-based; details: Vero E6 cells, 100 TCID50, CPE after 3-4 days; unit not given (drug concentrations 250-15.62 μg/mL); in µg/mL
parainfluenza virus [1] = assay: Effect of drug on virus-induced CPE (MTT, antiviral effective rate), parainfluenza virus in Vero cells; format: cell-based
influenza virus [2] = assay: Effect of drug on virus-induced CPE (MTT, antiviral effective rate), influenza virus in Vero cells; format: cell-based
IL-2 = assay: Serum IL-2 in mice infected with influenza virus; format: in vivo, ICR mice; details: Day 5 after influenza virus infection, gavage once a day, x ± s
Procedure: (§1) On the Day 5 after influenza virus infection, that is, Day 6 after administration, after the mice were fasted with solids for 8 h and weighed, venous blood was collected from the plexus ophthalmicus, and blood from mice in each group was preserved, subjected to serum separation, and stored in a refrigerator for later use. According to the instructions of a test kit, various detection and analysis were carried out, and IL-2 and TNF-α concentrations were calculated based on the standard detection and standard curve plotting.

TNF-α = assay: Serum TNF-α in mice infected with influenza virus; format: in vivo, ICR mice; details: Day 5 after influenza virus infection, gavage once a day, x ± s
Procedure: as §1

IL-1β = assay: RT-qPCR of IL-1β in lung homogenate of mice infected with COVID-19 Delta virus; details: mRNA RT-qPCR, NC = 1.00
COVID-19 Delta virus [3] = assay: Prophylactic administration, death protection of mice infected with COVID-19 Delta virus; details: for Death rate / Survival rate / Mean survival: within 5 days of Delta infection, n = 8; for Mean survival: x ± s
Procedure: hACE2 transgenic C57BL/6 mice were divided (8 mice in each group) into a normal group (NC), a virus infection group (Virus), and drug groups (a COVID-19 Delta virus low-dose (40 mg/kg) group, high-dose (80 mg/kg) group; and a positive control group (Remdesivir 50 mg/kg). Before nasal dripping infection, the drug was administered by gavage 5 days in advance, once a day. After 5 days of continuous gavage, nasal dripping infection was performed, and mice in each COVID-19 virus infection group were infected with COVID-19 Delta virus with 10′ PFU by nasal dripping, except for the normal group who were given PBS by nasal dripping.
After infection, the body weight change was recorded every day, the death of animals within 5 days of infection was recorded, and the mean survival days and mortality rate of 5 days were calculated.

parainfluenza virus [4] = assay: Action links (Groups I-IV: prevention, treatment, direct inactivation), protection of cells against parainfluenza virus; format: cell-based; details: for Protection rate (ER %), Group IV: drug and virus mixed and adsorbed for 2 h, then added with cells (direct inactivation); for Protection rate (ER %), Group III: drug solution and virus solution added at the same time (direct inactivation); for Protection rate (ER %), Group II: virus added first, drug added 1 h after adsorption (treatment); for Protection rate (ER %), Group I: virus solution added after 24 h of drug administration (prevention)
influenza virus [5] = format: in vivo, Kunming mice; details: for Hemagglutination titer inhibition rate (%): Day 5; for Hemagglutination titer: lung suspension
influenza virus FM1 = assay: Action links (Groups I-IV: prevention, treatment, direct inactivation), protection of cells against influenza virus; format: cell-based; details: for Protection rate (ER %), Group IV: drug and virus mixed and adsorbed for 2 h, then added with cells (direct inactivation); for Protection rate (ER %), Group III: drug solution and virus solution added at the same time (direct inactivation); for Protection rate (ER %), Group II: virus added first, drug added 1 h after adsorption (treatment); for Protection rate (ER %), Group I: virus solution added after 24 h of drug administration (prevention)
MCP-1 = assay: RT-qPCR of MCP-1 in lung homogenate of mice infected with COVID-19 Delta virus; details: mRNA RT-qPCR, NC = 1.00
COVID-19 Delta virus [6] = assay: Prophylactic administration, virus titer in lung tissues of mice infected with COVID-19 Delta virus; details: prophylactic gavage 5 days before infection, Day 5 after infection, TCID50 on VERO E6 cells
parainfluenza virus [7] = format: in vivo, Kunming mice; details: for Hemagglutination titer inhibition rate (%): Day 5; for Hemagglutination titer: lung suspension, Day 5, […]
[8] = high-dose group 80 mg/kg gavage 5 days
[9] = low-dose group 40 mg/kg gavage 5 days
[10] = prophylactic administration, High dose
[11] = prophylactic administration, Low dose

| SMILES | IL-2 expression level (IL-2; High-dose group (26.0 mg/kg)) | IL-2 expression level (IL-2; Low-dose group (13.0 mg/kg)) | TNF-a expression level (TNF-α; High-dose group (26.0 mg/kg)) | TNF-a expression level (TNF-α; Low-dose group (13.0 mg/kg)) | Expression level of IL-1β in lung homogenate (x ± s) (IL-1β; [8]) | Expression level of IL-1β in lung homogenate (x ± s) (IL-1β; [9]) | Death rate (COVID-19 Delta virus [3]; [10]) [%] | Survival rate (COVID-19 Delta virus [3]; [10]) [%] | Mean survival (COVID-19 Delta virus [3]; [10]) [days] | Death rate (COVID-19 Delta virus [3]; [11]) [%] | Survival rate (COVID-19 Delta virus [3]; [11]) [%] | Mean survival (COVID-19 Delta virus [3]; [11]) [days] | Protection rate (ER %), Group IV (parainfluenza virus [4]) [%] | Protection rate (ER %), Group III (parainfluenza virus [4]) [%] | Protection rate (ER %), Group II (parainfluenza virus [4]) [%] | Protection rate (ER %), Group I (parainfluenza virus [4]) [%] | Hemagglutination titer inhibition rate (%) (influenza virus [5]; 13.0 mg/kg) | Protection rate (ER %), Group IV (influenza virus FM1) [%] | Protection rate (ER %), Group III (influenza virus FM1) [%] | Protection rate (ER %), Group II (influenza virus FM1) [%] | further results |
| --- | --- | --- | --- | --- | --- | --- | --- | --- | --- | --- | --- | --- | --- | --- | --- | --- | --- | --- | --- | --- | --- |
| COc1ccc(C2OCC3C(c4ccc(OC(=O)C(C)c5ccc(CC(C)C)cc5)c(OC)c4)OCC23)cc1OC (stereo not shown) [compound 6] |  |  |  |  |  |  |  |  |  |  |  |  |  |  |  |  |  |  |  |  | Maximum non-toxic concentration (TC0) (Vero cells): 0.012 g/L; Median toxic concentration (TC50) (Vero cells): 0.31 g/L; COVID-19 virus IC50 (COVID-19 virus): 161.8; Effective rate, ER %, Parainfluenza Virus (parainfluenza virus [1]): 93.96%; Effective rate, ER %, Influenza Virus (influenza virus [2]): 84.51% |
| COc1ccc([C@H]2OC[C@H]3[C@@H]2CO[C@H]3c2ccc(O[C@@H]3O[C@H](CO)[C@@H](O)[C@H](O)[C@H]3O)c(OC)c2)cc1OC [Serial No. 2, phillyrin] | 262.88 ± 35.66 | 293.00 ± 21.88 | 618.38 ± 28.86 | 683.47 ± 37.37 | 5.11 ± 14.34 | 10.58 ± 10.22 | 12.50 | 87.50 | 4.88 ± 0.35 | 75.00 | 25.00 | 3.88 ± 0.83 | 100.93 | 100.67 | 85.94 | 84.48 | 43.30 | 100.86 | 100.68 | 75.58 | Hemagglutination titer (influenza virus [5]; 13.0 mg/kg, Day 5, […]): 20.11 ± 0.351; Protection rate (ER %), Group I (influenza virus FM1): 75.86%; Expression level of MCP-1 in lung homogenate (x ± s) (MCP-1; [8]): 3.66 ± 11.30; Expression level of MCP-1 in lung homogenate (x ± s) (MCP-1; [9]): 7.42 ± 12.66; Lung virus titer (x ± s, n = 8) (COVID-19 Delta virus [6]; high dose 80 mg/kg): 2.95 ± 0.57; Lung virus titer (x ± s, n = 8) (COVID-19 Delta virus [6]; low dose 40 mg/kg): 3.70 ± 0.25; Hemagglutination titer inhibition rate (%) (parainfluenza virus [7]; 13.0 mg/kg): 37.52%; Hemagglutination titer (parainfluenza virus [7]; 13.0 mg/kg): 21.63 ± 0.330 |
| COc1cc(O)cc(C2OCC3C(c4ccc(OC5OC(CO)C(O)C(O)C5O)c(OC)c4)OCC23)c1 [Serial No. 1, (7,8,7′,8′)-7,7′-bisepoxy-5′-hydroxy-3,3′hydroxy-bismethoxylignan, 4-O-β-D-glucoside] | 259.04 ± 39.98 | 288.64 ± 25.05 | 608.95 ± 34.92 | 673.65 ± 26.44 | 4.80 ± 18.82 | 9.13 ± 8.66 | 12.50 | 87.50 | 4.88 ± 0.35 | 75.00 | 25.00 | 4.25 ± 0.46 | 100.82 | 100.49 | 85.95 | 84.39 | 43.39 | 100.76 | 100.52 | 75.77 | Hemagglutination titer (influenza virus [5]; 13.0 mg/kg, Day 5, titer (InX)): 20.08 ± 0.381; Protection rate (ER %), Group I (influenza virus FM1): 75.49%; Expression level of MCP-1 in lung homogenate (x ± s) (MCP-1; [8]): 3.26 ± 9.77; Expression level of MCP-1 in lung homogenate (x ± s) (MCP-1; [9]): 6.13 ± 15.12; Lung virus titer (x ± s, n = 8) (COVID-19 Delta virus [6]; high dose 80 mg/kg): 2.93 ± 0.34; Lung virus titer (x ± s, n = 8) (COVID-19 Delta virus [6]; low dose 40 mg/kg): 3.36 ± 0.28; Hemagglutination titer inhibition rate (%) (parainfluenza virus [7]; 13.0 mg/kg): 37.46%; Hemagglutination titer (parainfluenza virus [7]; 13.0 mg/kg): 21.65 ± 0.238 |
| CCC(CC)COC(=O)[C@H](C)N[P@](=O)(OC[C@H]1O[C@@](C#N)(c2ccc3c(N)ncnn23)[C@H](O)[C@@H]1O)Oc1ccccc1 [Remdesivir, reference compound] |  |  |  |  |  |  |  |  |  |  |  |  |  |  |  |  |  |  |  |  | Expression level of IL-1β in lung homogenate (x ± s) (IL-1β; 50 mg/kg, 5 days): 9.52 ± 6.37; Death rate (COVID-19 Delta virus [3]; 50 mg/kg): 75.00%; Survival rate (COVID-19 Delta virus [3]; 50 mg/kg): 25.00%; Mean survival (COVID-19 Delta virus [3]; 50 mg/kg): 3.88 ± 0.83 days; Death protection rate (COVID-19 Delta virus [3]; prophylactic administration, 50 mg/kg, within 5 days of infection): 75%; Expression level of MCP-1 in lung homogenate (x ± s) (MCP-1; 50 mg/kg, 5 days): 6.88 ± 5.73; Lung virus titer (x ± s, n = 8) (COVID-19 Delta virus [6]; 50 mg/kg): 3.69 ± 1.06 |
| COc1cc([C@H]2OC[C@H]3[C@@H]2CO[C@H]3c2ccc(OC)c(OC)c2)ccc1O [Serial No. 3, phillygenin] | 275.59 ± 31.88 | 306.70 ± 34.88 | 648.40 ± 27.19 | 713.48 ± 39.74 | 4.93 ± 16.18 | 9.98 ± 11.16 | 12.50 | 87.50 | 4.88 ± 0.35 | 75.00 | 25.00 | 4.13 ± 0.64 | 100.18 | 100.46 | 85.11 | 84.15 | 42.20 | 100.38 | 100.86 | 75.51 | Hemagglutination titer (influenza virus [5]; 13.0 mg/kg, Day 5, […]): 20.50 ± 0.489; Protection rate (ER %), Group I (influenza virus FM1): 75.46%; Expression level of MCP-1 in lung homogenate (x ± s) (MCP-1; [8]): 3.67 ± 10.22; Expression level of MCP-1 in lung homogenate (x ± s) (MCP-1; [9]): 6.71 ± 4.38; Lung virus titer (x ± s, n = 8) (COVID-19 Delta virus [6]; high dose 80 mg/kg): 2.98 ± 0.73; Lung virus titer (x ± s, n = 8) (COVID-19 Delta virus [6]; low dose 40 mg/kg): 3.47 ± 0.98; Hemagglutination titer inhibition rate (%) (parainfluenza virus [7]; 13.0 mg/kg): 36.28%; Hemagglutination titer (parainfluenza virus [7]; 13.0 mg/kg): 22.06 ± 0.310 |
| CCOC(=O)C1=C[C@@H](OC(CC)CC)[C@H](NC(C)=O)[C@@H](N)C1 [Oseltamivir phosphate, reference compound] |  |  |  |  |  |  |  |  |  |  |  |  |  |  |  |  |  |  |  |  | IL-2 expression level (IL-2; 19.5 mg/kg): 279.83 ± 23.26; TNF-a expression level (TNF-α; 19.5 mg/kg): 658.91 ± 38.33; Maximum non-toxic concentration (TC0) (Vero cells): 0.29 g/L; Median toxic concentration (TC50) (Vero cells): 0.831 g/L; Hemagglutination titer inhibition rate (%) (influenza virus [5]; 19.5 mg/kg): 37.78%; Hemagglutination titer (influenza virus [5]; 19.5 mg/kg, Day 5, titer (InX)): 22.07 ± 0.235; Effective rate, ER %, Parainfluenza Virus (parainfluenza virus [1]): 91.16%; Hemagglutination titer inhibition rate (%) (parainfluenza virus [7]; 19.5 mg/kg): 32.93%; Hemagglutination titer (parainfluenza virus [7]; 19.5 mg/kg): 23.22 ± 0.648; Effective rate, ER %, Influenza Virus (influenza virus [2]; Vero cells, 100TCID50, drug at experimental concentration of Table 3-2 (about maximum non-toxic), 72 h, MTT): 81.92% |

Source: patent publication US20250049831A1, “ANTIVIRAL USE OF BISE[…], AND BISEPOXYLIGNAN COMPOSITION AND PREPARATION OF BISE[…]” (priority 2021, published 2025)
